The text below walks through data of patent publication US20230027295A1, “FXIA INHIBITORS AND PREPARATION METHOD THEREFOR AND PHARMACEUTICAL USE THEREOF” (Shenzhen Salubris Pharmaceuticals Co., Ltd., priority 2019, published 2023).

For orientation: IC50 means the concentration needed to halve the response being measured. Lower therefore signals inhibition by little substance. In general, efflux ratio refers to a quotient of directional permeabilities that is used to spot active efflux. A word on the Papp A→B: it is how fast a substance crosses the layer from the apical side. A lower Papp A→B goes with poor permeation. As usually defined, the Papp B→A is how fast a substance crosses the layer from the basolateral side. By inhibition is commonly meant the relative decrease from the control value, in per cent.

The target in one data set is T1, hKallikrein (Homo sapiens, UniProt P03952).
T1 construct: purchased LOT180223
Briefly: Selectivity to coagulation factors: kallikrein. The format is biochemical. As to the method:
Example 52: Investigation of the Selectivity of the Compounds of the Present Invention to Coagulation Factors
Enzyme: hFXa: Human Factor Xa: 71nkat. hFIIa: HT5146L. hFVIIa: Human Factor VIIa: hFVIIa 4591L. kallikrein: LOT180223.
kallikrein buffer: 50 mM Tris, 50 mM Mimidazole and 150 mM NaCl (pH 8.2).
10 mM test compound dissolved in 100% DMSO was diluted with 100% DMSO to 1000, 200, 40, 8, 1.6 μM. 98 μL of enzyme solution was added to each well of a 96-well plate, while 98 μL of buffer was added to the blank wells. 2 μL of compounds of different concentrations were added, while the blank and control wells were added with DMSO instead. They were mixed with a shaker, and incubated at 37° C. for 20 min.
The concentrations of hFXa and S-2222™ were FXa (1:28) and 800 μmol/L, respectively. The concentrations of hFIIa and S-2238™ were hFIIa (0.06 U/ml) and 500 μmol/L, respectively. The concentrations of hFVIIa and S-2288™ were hFVIIa (80 nM) and 1600 μmol/L, respectively. The concentrations of kallikrein and substrate were kallikrein (20 nM) and 1600 μmol/L, respectively.
Finally, 100 μL substrate was added to each well, and its absorbance was measured at 405 nm.

A further data set is described as follows: Caco-2 permeability. Conditions: human; for efflux ratio at 2 h: Caco-2, Papp(B-A)/Papp(A-B); for Papp A→B at 2 h / Papp B→A at 2 h: Caco-2 monolayer, 2h incubation. It is filed as in vitro ADME. As for the experimental part:
Example 54: Investigation of the Caco-2 Data of the Compounds of the Present Invention
Medium: DMEM (Corning), FBS (Corning), double antibody (Solarbio), 96-well HTS transwell plate (Corning), Caco-2 cells.
Experimental method: Caco-2 cells were cultured on 96-well HTS transwell plate for 14-18 days, and the TEER value of each well was detected to ensure that the cells in each well formed a complete monolayer. Drug was added and it was incubated for 2h to detect the drug concentrations of A-B and B-A.
Data processing: PappA-B and PappB-A values were calculated: Papp=(VA×[drug]acceptor)/(Area×Time×[drug]initial, donor); Efflux Ratio was calculated: Efflux Ratio=Papp(B-A)/Papp(A-B).
Background: Passage across Caco-2 layers is used to estimate intestinal permeability.

The next data set deals with human plasma. The data set is described as follows: Anticoagulant effect on human plasma in vitro (APTT determination). It is filed as biochemical. The settings on record: for aPTT EC1.5×: concentration giving APTT of 1.5× blank control; for aPTT EC2×: concentration giving APTT of 2× blank control. The procedure, abridged: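 Citrated (3.2%) human plasma, stored at −80 °C and thawed, mixed with compound in DMSO (2% v/v; DMSO-only blank) and incubated 10 min at 37 °C before APTT on a coagulation analyzer. EC1.5× and EC2× are concentrations giving APTT 1.5× and 2× the blank control, from curve fitting.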

In another data set the target is T2, hERG current (Homo sapiens, UniProt Q12809).
T2 construct: host or cells: HEK293
The data set is described as follows: hERG current in HEK293-hERG stably transfected cells. The format is cell-based. Conditions: HEK293-hERG cells. As for the experimental part: (§1) Example 56: Investigation on hERG of the Compound of the Present Invention
(§2) HEK293-hERG stably transfected cell line (invitrogen). DMEM medium (Gibco), HEPES (invitrogen), Blasticidin (invitrogen)
(§3) HEK293-hERG stably transfected cells were used for experiments when they were cultured to a degree of polymerization of 40%-80%. First, a blank solvent was applied to the cells to establish a baseline. […] In the presence of test compounds, hERG currents were recorded for approximately 5 minutes to reach a steady state, and then 5 sweep frequencies were captured. To ensure good performance of cultured cells and manipulations, the same batch of cells was also tested using the positive control dofetilide.
(§4) Peak current inhibition=(1−Peak tail current compound/Peak tail current vehicle)*100
On the technique in general: Block of hERG is tested as a sign of cardiac risk.

Another data set has as its target T3, hERG (Homo sapiens, UniProt Q12809).
T3 construct: host or cells: HEK293
The description is as above. It is filed as cell-based. The settings on record: human, HEK293 cells stably transfected with hERG; at 10 μM; read-out: hERG peak current inhibition. As for the experimental part: as §1, §2, §3, §4

A further data set addresses T4, CYP2C19 (Homo sapiens, UniProt P33261).
T4 construct: Liver microsomes (150-donor, Corning, Cat. 452117; Lot; 38292), NADPH; tissue Corning 452117; host or cells: liver microsomes, 150-donor pool
Briefly: CYP enzyme inhibition in liver microsomes: CYP2C19. The format is in vitro ADME. Conditions: 0.2 mg/mL liver microsomes. As to the method: Example 55: Investigation of CYP Enzyme Inhibition by the Compounds of the Present Invention Liver microsomes (150-donor, Corning, Cat. 452117; Lot. 38292), NADPH. A 0.2 mg/mL microsome system was prepared, each test substance and substrate were added, and the final concentration of the test substance was 50 μM. After pre-incubating for 8 min, 10 mM NADPH was added to start the reaction, and the final concentration of NADPH was 1 mM. After a period of incubation, an internal standard such as methanol was added to stop the reaction. The amount of substrate metabolites generated in each reaction well was detected. Data processing: Taking the metabolite generation in the blank well as 100%, the reduction of metabolite generation in each well of the test substance was calculated, and the inhibition rate was calculated.

T4 sequence (P33261 whole entry): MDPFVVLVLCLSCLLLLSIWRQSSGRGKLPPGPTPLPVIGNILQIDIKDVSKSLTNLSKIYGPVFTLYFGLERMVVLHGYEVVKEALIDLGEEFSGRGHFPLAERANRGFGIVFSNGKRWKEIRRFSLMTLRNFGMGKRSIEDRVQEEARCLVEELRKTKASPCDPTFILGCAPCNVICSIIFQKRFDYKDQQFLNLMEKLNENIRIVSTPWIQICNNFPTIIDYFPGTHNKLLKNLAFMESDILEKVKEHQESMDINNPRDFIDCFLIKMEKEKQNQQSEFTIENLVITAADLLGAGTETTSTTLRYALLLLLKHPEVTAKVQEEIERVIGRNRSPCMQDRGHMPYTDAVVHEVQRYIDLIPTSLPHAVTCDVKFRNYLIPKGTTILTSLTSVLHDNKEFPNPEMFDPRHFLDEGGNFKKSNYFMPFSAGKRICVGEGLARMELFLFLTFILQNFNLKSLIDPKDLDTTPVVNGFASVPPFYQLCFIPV
T2 sequence (Q12809 whole entry): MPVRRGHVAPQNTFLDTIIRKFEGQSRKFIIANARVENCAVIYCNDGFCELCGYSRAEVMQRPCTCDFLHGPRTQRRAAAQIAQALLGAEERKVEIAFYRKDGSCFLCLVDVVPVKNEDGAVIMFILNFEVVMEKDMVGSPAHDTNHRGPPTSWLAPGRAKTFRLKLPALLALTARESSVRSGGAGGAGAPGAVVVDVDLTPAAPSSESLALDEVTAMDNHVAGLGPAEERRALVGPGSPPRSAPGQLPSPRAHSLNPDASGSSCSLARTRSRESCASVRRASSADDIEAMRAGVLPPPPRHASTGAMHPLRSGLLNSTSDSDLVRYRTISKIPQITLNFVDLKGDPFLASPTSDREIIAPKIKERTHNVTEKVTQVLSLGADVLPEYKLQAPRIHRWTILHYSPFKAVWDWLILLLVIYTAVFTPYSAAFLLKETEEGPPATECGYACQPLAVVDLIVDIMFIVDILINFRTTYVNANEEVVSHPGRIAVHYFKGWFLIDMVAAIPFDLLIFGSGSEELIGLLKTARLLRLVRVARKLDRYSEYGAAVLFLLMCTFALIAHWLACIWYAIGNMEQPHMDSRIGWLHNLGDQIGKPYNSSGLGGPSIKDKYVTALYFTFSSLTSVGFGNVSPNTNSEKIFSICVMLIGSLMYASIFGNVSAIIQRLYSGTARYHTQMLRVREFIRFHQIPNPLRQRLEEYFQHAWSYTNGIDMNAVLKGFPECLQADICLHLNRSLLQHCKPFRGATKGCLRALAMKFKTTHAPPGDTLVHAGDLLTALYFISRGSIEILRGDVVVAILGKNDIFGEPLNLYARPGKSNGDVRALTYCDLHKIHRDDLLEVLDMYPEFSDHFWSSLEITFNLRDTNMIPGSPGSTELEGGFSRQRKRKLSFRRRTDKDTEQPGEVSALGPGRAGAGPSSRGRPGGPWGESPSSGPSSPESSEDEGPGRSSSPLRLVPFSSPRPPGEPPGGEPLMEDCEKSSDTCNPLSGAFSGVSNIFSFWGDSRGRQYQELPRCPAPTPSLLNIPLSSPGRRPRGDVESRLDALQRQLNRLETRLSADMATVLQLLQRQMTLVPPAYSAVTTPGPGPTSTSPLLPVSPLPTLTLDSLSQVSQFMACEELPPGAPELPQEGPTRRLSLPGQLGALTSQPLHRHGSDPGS
T3 sequence (Q12809 whole entry): as above
T1 sequence (P03952 391-638 limits assumed): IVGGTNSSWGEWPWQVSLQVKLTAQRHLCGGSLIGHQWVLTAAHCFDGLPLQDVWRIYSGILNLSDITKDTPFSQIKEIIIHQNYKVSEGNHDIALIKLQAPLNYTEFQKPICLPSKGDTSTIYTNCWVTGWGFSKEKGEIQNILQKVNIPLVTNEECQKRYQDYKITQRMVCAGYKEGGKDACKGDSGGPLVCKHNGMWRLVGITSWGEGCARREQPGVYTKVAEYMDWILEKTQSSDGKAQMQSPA
T1 sequence (P03952 20-390 partner limits assumed): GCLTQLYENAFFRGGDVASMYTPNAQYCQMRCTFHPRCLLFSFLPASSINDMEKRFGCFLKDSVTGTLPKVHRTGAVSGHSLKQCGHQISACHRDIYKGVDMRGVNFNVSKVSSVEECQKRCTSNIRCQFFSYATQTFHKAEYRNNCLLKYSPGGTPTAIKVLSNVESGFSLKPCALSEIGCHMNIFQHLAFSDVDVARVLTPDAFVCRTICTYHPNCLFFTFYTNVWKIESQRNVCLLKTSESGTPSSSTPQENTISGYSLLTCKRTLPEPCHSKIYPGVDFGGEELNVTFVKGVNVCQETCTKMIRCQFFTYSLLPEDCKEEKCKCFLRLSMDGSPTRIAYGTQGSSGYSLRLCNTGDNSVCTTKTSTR

`COc1nn([C@@H](Cc2ccccc2)C(=O)Nc2ccc(C(=O)O)cc2)c(=O)cc1-c1cc(Cl)ccc1C(C)=O` [Example 19, (S)-4-(2-(4-(2-acetyl-5-chlorophenyl)-3-methoxy-6-oxopyridazin-1(6H)-yl)-3-phenylpropanamido)benzoic acid]: on hKallikrein, the IC50 is 0.524 ± 0.0602 µM. For the same compound, in the data set “Caco-2 permeability”, the efflux ratio at 2 h was found to be 16.3, the Papp A→B at 2 h turned out to be 1.54 ×10⁻⁶ cm/s and the Papp B→A at 2 h is 25.1 ×10⁻⁶ cm/s. Besides, in the data set on human plasma, the “aPTT EC1.5×” value was determined as 0.641 µM and the “aPTT EC2×” value is 2.817 µM. Moreover, the IC50 against hERG current is greater than 10 µM. Also, the inhibition at 5 min, 10 µM at hERG is 1.17%. At CYP2C19, this compound displayed an IC50 greater than 50 µM.
`CCC(=O)c1ccc(Cl)cc1-c1cc(=O)n([C@@H](Cc2ccccc2)C(=O)Nc2ccc(C(=O)O)cc2)nc1OC` [Example 32]: on hKallikrein, half-maximal inhibition (IC50) required 0.103 ± 0.0149 µM. Further, in “Caco-2 permeability”, the efflux ratio at 2 h came out at 18.3, the Papp A→B at 2 h stood at 1.2 ×10⁻⁶ cm/s and the Papp B→A at 2 h is 21.9 ×10⁻⁶ cm/s. Besides, in the data set with human plasma, the “aPTT EC1.5×” value turned out to be 0.483 µM and the “aPTT EC2×” value was 1.319 µM. This compound returned an IC50 against hERG current greater than 10 µM. Moreover, the inhibition at 5 min, 10 µM on hERG was 2.8%. The IC50 against CYP2C19 was greater than 50 µM.
